Measured values: US10106534B2 (CELGENE QUANTICEL RESEARCH, INC., priority 2014, dated 2018)

Tests used:
[1] = target: JMJD2C (Homo sapiens (Human), UniProt Q9H3R0); experiment: In vitro enzyme inhibition assay for JMJD2C activity (TR-FRET); format: biochemical
Procedure, shortened: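 Demethylation product H3K9me2 quantified by TR-FRET ratio 665/615 after EDTA stop and 1 h with Eu-anti-H3K9me2 and streptavidin-APC; IC50 by curve fit. Reaction: 0.3 nM JMJD2C (AA 2-372, baculovirus), 2 μM α-ketoglutarate, 300 nM biotin-H3K9me3 peptide, pH 7.3 HEPES with Fe(II)/ascorbate, 30 min room temperature.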

[2] = system: KYSE-150 esophageal carcinoma cell line; experiment: In vitro cell-based assay: cellular proliferation via BrdU incorporation (ELISA); set-up: species or system human; details: Homo sapiens, KYSE-150, 168 hours compound incubation
Method: The primary cellular assay for JMJD2C inhibition is an assay which measures cellular proliferation via Bromodeoxyuridine (BrdU) incorporation after 168 hours of compound incubation. Cell lines tested include the JMJD2C gene amplified cell line KYSE-150. This is a quantitative ELISA assay measuring DNA incorporation of BrdU during S-phase as a direct readout of cellular proliferation.
Assay Principle: This is a colorimetric immunoassay for the quantification of cell proliferation. Cells treated for 168 hours with test compounds are assayed for their ability to go through S-phase as a measure of their proliferative potential.
Assay Method: The human KYSE-150 (SMAD4 mut, TP53 mut) esophageal carcinoma cell line was seeded at 2,000 cells/well on a 96-well tissue culture treated plate. After an overnight incubation, cells were treated with compound in an 11-point dilution series with final concentrations ranging from 100 μM to 2 nM. Cells were then incubated in the presence of compound for 168 hours. After compound incubation the cells were assayed using a BrdU Cell Proliferation ELISA (Roche). The cells were first incubated with BrdU labeling reagent for 2 hours. After 2 hours, the BrdU incorporated cells were fixed and denatured, probed with an anti-BrdU-Peroxidase antibody for 1.5 hours and washed. Finally, a tetramethylbenzidine peroxidase substrate was added to each well for 15 minutes followed by a H2SO4 stop solution. The plate was read at 450 nm, and the raw optical density data was transferred into XLFit (IDBS) for IC50 calculation using the formula: fit=(D+((Vmax*(x^n))/((x^n)+(Km^n))))

JMJD2C, sequence (Q9H3R0 2-372): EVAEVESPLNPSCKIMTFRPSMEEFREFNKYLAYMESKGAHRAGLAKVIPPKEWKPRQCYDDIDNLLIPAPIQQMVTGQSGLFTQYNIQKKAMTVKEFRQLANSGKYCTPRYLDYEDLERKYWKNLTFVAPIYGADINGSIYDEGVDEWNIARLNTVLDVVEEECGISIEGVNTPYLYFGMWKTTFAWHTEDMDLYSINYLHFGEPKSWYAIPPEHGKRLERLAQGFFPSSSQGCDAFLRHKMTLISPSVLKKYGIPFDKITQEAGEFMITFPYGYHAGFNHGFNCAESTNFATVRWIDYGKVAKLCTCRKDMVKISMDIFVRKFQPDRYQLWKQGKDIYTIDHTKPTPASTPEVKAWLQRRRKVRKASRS

Structure (SMILES) | IC50 [1] [nM] | IC50 [2] [nM]
O=C(O)c1ccncc1NC[C@@H]1CCOc2cc(Sc3cccc(F)c3)ccc21 [Example 53, 3-({[(4R)-7-[(3-fluorophenyl)sulfanyl]-3,4-dihydro-2H-1-benzopyran-4-yl]methyl}amino)pyridine-4-carboxylic acid] | 100 to 1000 | 100 to 1000
Cc1cccc(Oc2ccc3c(c2)CCCC3CNc2cnccc2C(=O)O)n1 (centres unmarked) [Example 56, 3-[({6-[(6-methylpyridin-2-yl)oxy]-1,2,3,4-tetrahydronaphthalen-1-yl}methyl)amino]pyridine-4-carboxylic acid] | 100 to 1000 | 1000 to 10000
Cc1ccccc1Oc1ccc2c(c1)CCC[C@H]2CNc1cnccc1C(=O)O [Example 58, 3-({[(1R)-6-(2-methylphenoxy)-1,2,3,4-tetrahydronaphthalen-1-yl]methyl}amino)pyridine-4-carboxylic acid] | 100 to 1000 | ≤ 100
CCCOc1ccc2c(c1)CCCC2CNc1cnccc1C(=O)O (centres unmarked) [Example 59, 3-{[(6-propoxy-1,2,3,4-tetrahydronaphthalen-1-yl)methyl]amino}pyridine-4-carboxylic acid] | 100 to 1000 | 1000 to 10000
O=C(O)c1ccncc1NC[C@@H]1CCCc2cc(OC(F)F)ccc21 [Example 61, 3-({[(1R)-6-(difluoromethoxy)-1,2,3,4-tetrahydronaphthalen-1-yl]methyl}amino)pyridine-4-carboxylic acid] | 100 to 1000 | 1000 to 10000
O=C(O)c1ccncc1NCC1CCCc2cc(OCC3CCOCC3)ccc21 (centres unmarked) [Example 63, 3-({[6-(oxan-4-ylmethoxy)-1,2,3,4-tetrahydronaphthalen-1-yl]methyl}amino)pyridine-4-carboxylic acid] | 100 to 1000 | > 10000
Cc1cc(F)ccc1Oc1ccc2c(c1)CCC[C@H]2CNc1cnccc1C(=O)O [Example 64, 3-({[(1R)-6-(4-fluoro-2-methylphenoxy)-1,2,3,4-tetrahydronaphthalen-1-yl]methyl}amino)pyridine-4-carboxylic acid] | 100 to 1000 | ≤ 100

Next, values leading:

IC50 [1] [nM] | IC50 [2] [nM] | Structure (SMILES)
100 to 1000 | 100 to 1000 | O=C(O)c1ccncc1NC[C@@H]1CCCc2cc(Oc3ccc(F)cc3F)ccc21 [Example 65, 3-({[(1R)-6-(2,4-difluorophenoxy)-1,2,3,4-tetrahydronaphthalen-1-yl]methyl}amino)pyridine-4-carboxylic acid]
100 to 1000 | 100 to 1000 | O=C(O)c1ccncc1NC[C@@H]1CCCc2cc(Oc3ccccc3Cl)ccc21 [Example 67, 3-({[(1R)-6-(2-chlorophenoxy)-1,2,3,4-tetrahydronaphthalen-1-yl]methyl}amino)pyridine-4-carboxylic acid]
1000 to 10000 | 100 to 1000 | Cc1cccc(Sc2ccc3c(c2)CCC[C@H]3CNc2cnccc2C(=O)O)c1 [Example 69, 3-({[(1R)-6-[(3-methylphenyl)sulfanyl]-1,2,3,4-tetrahydronaphthalen-1-yl]methyl}amino)pyridine-4-carboxylic acid]
1000 to 10000 | 100 to 1000 | Cc1ccccc1Sc1ccc2c(c1)CCC[C@H]2CNc1cnccc1C(=O)O [Example 71, 3-({[(1R)-6-[(2-methylphenyl)sulfanyl]-1,2,3,4-tetrahydronaphthalen-1-yl]methyl}amino)pyridine-4-carboxylic acid]
100 to 1000 | 100 to 1000 | O=C(O)c1ccncc1NC[C@@H]1CCCc2cc(Sc3ccccc3F)ccc21 [Example 73, 3-({[(1R)-6-[(2-fluorophenyl)sulfanyl]-1,2,3,4-tetrahydronaphthalen-1-yl]methyl}amino)pyridine-4-carboxylic acid]
100 to 1000 | ≤ 100 | O=C(O)c1ccncc1NC[C@@H]1CCCc2cc(Sc3ccc(F)cc3)ccc21 [Example 77, 3-({[(1R)-6-[(4-fluorophenyl)sulfanyl]-1,2,3,4-tetrahydronaphthalen-1-yl]methyl}amino)pyridine-4-carboxylic acid]
